The values that follow come from patent publication US9365494B2, “Process for synthesis of amino-methyl tetralin derivatives” (Roche Palo Alto LLC, priority 2008, dated 2016).

In series [1] the target is T1, recombinant human 5-HT6 receptor (Homo sapiens, UniProt P50406).
T1 construct: expressed in transfected cells; membranes)
Nature of the series: Radioligand binding studies, 5-HT6 ligand affinity by competing for binding of [3H]LSD. Particulars: [3H]LSD competition; membranes of HEK293 cells stably expressing the receptor; pH 7.4, 37° C., 75 min; duplicate determinations; read-out: pKi for 5-HT6 (converted). The method, then: The binding activity of compounds of this invention in vitro was determined as follows. Duplicate determinations of 5-HT6 ligand affinity were made by competing for binding of [^3H]LSD in cell membranes derived from HEK293 cells stably expressing recombinant human 5-HT6 receptor. Duplicate determinations of 5-HT2A ligand affinity were made by competing for binding of [^3H]Ketanserin (3-(2-(4-(4-fluorobenzoyl)piperidinol)ethyl)-2,4(1H,3H)-quinazolinedione) in cell membranes derived from CHO-K1 cells stably expressing recombinant human 5-HT2A receptor. Membranes were prepared from HEK 293 cell lines by the method described by Monsma et al., Molecular Pharmacology, Vol. 43 pp. 320-327 (1993), and from CHO-K^1 cell lines as described by Bonhaus et al., Br J. Pharmacol. June; 115(4):622-8 (1995).
For estimation of affinity at the 5-HT6 receptor, all determinations were made in assay buffer containing 50 mM Tris-HCl, 10 mM MgSO4, 0.5 mM EDTA, 1 mM ascorbic acid, pH 7.4 at 37° C., in a 250 microliter reaction volume. For estimation of affinity at the 5-HT2A receptor all determinations were made in assay buffer containing 50 mM Tris-HCl, 5 mM ascorbic acid, 4 mM CaCl2, pH 7.4 at 32° C., in a 250 microliter reaction volume.
Assay tubes containing [^3H] LSD or [^3H]Ketanserin (5 nM), competing ligand, and membrane were incubated in a shaking water bath for 75 min. at 37° C. (for 5-HT6) or 60 min. at 32° C. (for 5-HT2A), filtered onto Packard GF-B plates (pre-soaked with 0.3% PEI) using a Packard 96 well cell harvester and washed 3 times in ice cold 50 mM Tris-HCl. Bound [^3H] LSD or [^3H]Ketanserin were determined as radioactive counts per minute using Packard TopCount.
Displacement of [^3H]LSD or [^3H]Ketanserin from the binding sites was quantified by fitting concentration-binding data to a 4-parameter logistic equation:
[formula] where Hill is the Hill slope, [ligand] is the concentration of competing radioligand and IC50 is the concentration of radioligand producing half-maximal specific binding of radioligand. […]

Broadly, the melting point is the temperature of the solid-liquid transition.

T1 sequence (P50406 whole entry): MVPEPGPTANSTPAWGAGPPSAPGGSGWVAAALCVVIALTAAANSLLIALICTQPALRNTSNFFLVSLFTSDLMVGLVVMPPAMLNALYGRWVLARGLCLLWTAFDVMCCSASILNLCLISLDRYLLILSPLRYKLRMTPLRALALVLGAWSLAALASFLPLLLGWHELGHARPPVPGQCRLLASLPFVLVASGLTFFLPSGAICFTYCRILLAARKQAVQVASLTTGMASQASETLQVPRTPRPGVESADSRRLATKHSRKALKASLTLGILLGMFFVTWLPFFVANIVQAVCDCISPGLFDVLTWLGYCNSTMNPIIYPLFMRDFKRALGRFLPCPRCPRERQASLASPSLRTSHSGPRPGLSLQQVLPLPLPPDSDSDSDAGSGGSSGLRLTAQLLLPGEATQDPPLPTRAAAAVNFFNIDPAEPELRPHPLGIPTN

For `NC(=O)[C@@H]1CCCc2cc(Sc3cccc(F)c3)ccc21` [Example 6, (R)-6-(3-Fluoro-phenylsulfanyl)-1,2,3,4-tetrahydro-naphthalene-1-carboxylic acid amide], the melting point was 131.9 to 132.6 °C.
Compound `CC(=O)NC[C@@H]1CCCc2cc(S(=O)(=O)c3ccccc3)cc(F)c21` [N-((R)-6-Benzenesulfonyl-8-fluoro-1,2,3,4-tetrahydro-naphthalen-1-ylmethyl)-acetamide] displayed a melting point of 152.5 to 153.8 °C. Besides, the Ki in series [1] was 0.178 nM.
Take `NC(=O)NC[C@@H]1CCCc2cc(S(=O)(=O)c3cccc(F)c3)ccc21` [[(R)-6-(3-Fluoro-phenylsulfonyl)-1,2,3,4-tetrahydro-naphthalen-1-ylmethyl]-urea]: the Ki in series [1] is 0.1 nM.
As to `NC(=O)NC[C@@H]1CCCc2cc(S(=O)(=O)c3cccc(F)c3)cc(F)c21` [[(R)-8-Fluoro-6-(3-fluoro-benzenesulfonyl)-1,2,3,4-tetrahydro-naphthalen-1-ylmethyl]-urea], the melting point was in the range of 193.5 to 194.4 °C. In addition, the Ki in series [1] is 0.158 nM.
